Laboratory results: patent US12599599B2, “Anti-inflammatory, anti-cancer, and anti-angiogenic compounds, pharmaceutical compositions, and methods of making and using thereof” (MEDICON PHARMACEUTICALS, INC., priority 2017, dated 2026)
Blank lines part the entries; values can stand above or below the compound they belong to.

Legend:
[1] = Ocular pharmacokinetics and biodistribution after eye drops; format: in vivo, New Zealand rabbits; set-up: unit not given here; settings: rabbit, 20% eye drops
Procedure: The pharmacokinetics and biodistribution of compounds 1, 2, and 5 in the eye of rabbits were determined. Each of these compounds was dissolved in phosphate buffered saline (PBS) and used as eye drops. The eye drops were sterilized before application to rabbits by filtration through a 0.2 μm membrane. […] The eyes were harvested and eye tissues and the lacrimal glands were dissected, homogenized and the test compounds were extracted by acetonitrile and analyzed by HPLC, as described under Compound Synthesis described herein. Compounds 1 and 2 were detected at 328 nm, and compound 5 at 260 nm. […] All three compounds can unexpectedly, readily, and rapidly reach the posterior chamber of the eye.

RAW264 murine macrophage = assay: 24 hr growth inhibition of cell line; format: cell-based; settings: Mus musculus, RAW264.7, 24 h
Procedure: (§1) The therapeutic efficacy of compounds 2, 5, and 6 was assessed in human and murine cell lines of varied tissue origin, and their 24 hr 50% inhibitory concentration was determined by following standard methodologies. Typical results are shown in the Table 5, indicating a broad anticancer effect.

HCT116 colon cancer = assay: 24 hr growth inhibition of cell line; format: cell-based; settings: Homo sapiens, HCT-116, 24 h
Procedure: as §1

AGS gastric cancer = assay: 24 hr growth inhibition of cell line; format: cell-based; settings: Homo sapiens
Procedure: as §1

A549 lung cancer = assay: 24 hr growth inhibition of cell line; format: cell-based; settings: Homo sapiens
Procedure: as §1

SKOV-3 ovarian cancer = assay: 24 hr growth inhibition of cell line; format: cell-based; settings: Homo sapiens, SK-OV-3, 24 h
Procedure: as §1
Ovarian cancer cells were studied in greater detail using the following ovarian cancer cell lines: SKOV-3, OVCAR3, A2780 (and two cell lines derived from it, A2870cis that is resistant to cisplatin, and A2870ADR that is resistant to doxorubicin (Adriamycin)), and HEY (sensitive to paclitaxel (Taxol), and its derivative HEY-T30 that is Taxol-resistant). […]

[2] = test system: oxygen-induced retinopathy; assay: Mouse model of oxygen-induced retinopathy; format: in vivo, C57BL/6 mice; settings: 10% w/v eye drops 5 times daily, P12 to P17
Procedure: C57BL/6 mice were reared in 75±2% oxygen air starting on postnatal day 7 (P7) and moved into room air on P12, when they were injected intravitreally with 1 μl of 1% compound 6 solution or vehicle. On P17, the pups were euthanized, both eyes were enucleated and fixed with 4% paraformaldehyde (PFA). Following several intermediate steps, the retina was existed and fixed further with 4% PFA overnight. After appropriate washings, the retina was incubated with 10 μg/ml of FITC-conjugated anti-lectin antibody overnight and retina flat-mounts were prepared on glass slides and evaluated by fluorescence microscopy. The areas of the avascular, neovascular and whole retina were determined using ImageJ software.
In another study, the same mouse model of oxygen-induced retinopathy described above was used. In this study, mice were treated daily with an aqueous solution of compound 2 (pH=4.6, osmolarity=282 mOsm; concentration=10% w/v) from postnatal day 12 to day 17. Compound 2 was administered as one eye drop per eye every 2 hours during the day time for a total of 5 administrations daily. At the end of the study, mice were euthanized and their retinas dissected and studied by immunofluorescence using an antibody against lectin I, isolectin B4 (Vector Laboratories) and evaluated as above.

[3] = Biodistribution in human eyes removed from deceased donors; format: in vitro ADME; settings: human eye, 10% (w/v) solution, then 1 h incubation
Procedure: Compound 6 3% (formulated in polyethylene glycol 155; Tween 80% 1%; Kolliphor EL 10%, made to 100% with normal saline; pH 7.2) was injected iv as a single dose of 30 mg/kg. Its retina levels were 4.9 μM and 1 μM at 1 h and 2 h, respectively (the corresponding sclera levels were similar, 3.2 μM and 2.0 μM). When compound 6 was given ip (in corn oil) as a single dose of 100 mg/kg its retina levels became detectable at 3 h (3.2 μM) and remained at 2.8 μM at 4 h and 6 h. Similarly, after its single topical administration, compound 6 3% (formulated in vitamin E TPGS 16%, mannitol 3.2% boric acid 1.2% and polyquad 0.005%, pH 7.2) produced retinal levels of 2.1 μM at 4 h. The biodistribution of compound 2 in human eyes that were recently removed from deceased donors and kept on ice until used within hours was also evaluated. In this study, compound 2 was dissolved in pure water, its pH was adjusted to 4.8±0.1 and its osmolarity to 290 mOsm. The final concentration of compound 2 was 10% (w/v).
The anterior surface of each was brought into contact with the above solution of compound 2 at 37° C.; the solution level was about 3 mm above the cornea edge. After 1 minute or 10 minutes the eyes were rinsed thoroughly with PBS, incubated for 1 h, and dissected to harvest the retina, choroid, aqueous humor, ciliary body, iris and cornea, which ere assayed by HPLC. As shown in the below table, compound 2 did reach the posterior segment of the eye.

A2780 xenografts = assay: Subcutaneous xenografts in nude mice, platinum sensitive; format: in vivo; settings: compound 5 15 mg/kg/day six days a week ip; cis-platinum 5.5 mg/kg one time a week ip
Procedure: (§2) To determine whether compound 5 is efficacious against chemotherapy-resistant ovarian cancer, three pairs of sensitive and resistant human ovarian cancer cell lines were grown as subcutaneous xenografts in nude mice and treated as summarized in FIG. 10. These cell lines were: A2780, sensitive to both cis-platinum and Adriamycin (doxorubicin); A2780cis, resistant to cis-platinum; A2780ADR, resistant to Adriamycin: HEY, sensitive to Taxol; HEY-T30, resistant to Taxol. The treatments administered were: vehicle control; compound 5, 15 mg/kg/day six days a week, ip; cis-platinum 5.5 mg/kg, one time a week ip; Adriamycin 3 mg/kg twice a week ip; and Taxol 20 mg/kg twice a week ip.

A2780cis xenografts = assay: Subcutaneous xenografts in nude mice, cisplatin resistant; format: in vivo; settings: compound 5 15 mg/kg/day six days a week ip; cis-platinum 5.5 mg/kg one time a week ip
Procedure: Compound 6 was also efficacious against chemotherapy-resistant ovarian cancer. […] The effect of compound 6 in cisplatin resistant (A2780cis) and doxorubicin (Adriamycin) resistant (A2780ADR) tumors was studied. Briefly, each of these cell lines was subcutaneously inoculated into athymic nude mice and when the tumor size reached 100-200 mm^3, compound 6 150 mg/kg/day or its vehicle were given i.p. After 11 days of treatment, for the cisplatin-resistant tumors the tumor volume of the vehicle group was 2388±127 mm^3 and for compound 6 group 1032±108 mm^3 (mean±SEM; P<0.02); while for the doxorubicin-resistant tumors these values were: vehicle group=1369±337 mm^3 and compound 6 group=396±182 mm^3 (P<0.02).
as §2

HEY-T30 xenografts = assay: Synergy with cyclophosphamide, Taxol resistant subcutaneous xenografts; format: in vivo, nude mice; settings: day 21; compound 5 10 mg/kg/day six days a week ip; cyclophosphamide 10 mg/kg six days a week orally; or both
[4] = test system: Ras palmitoylation in A2780 and A2780cis ovarian cancer cells; assay: Ras palmitoylation (resin capture, immunoblot); format: cell-based, human
Procedure: FIGS. 18A-18B illustrate the effect of compounds 5 and 6 on K-Ras. FIG. 18A: Compound 6 suppressed of K-Ras activation. Cells with mutant K-Ras were treated with compound 6 1.5×IC50 for the respective time periods. K-Ras activity was determined by Ras pull-down (Thermo Scientific; following vendor instructions). K-Ras activation is suppressed 37% at 1 hr and 88% at 2 hrs compared to respective controls. FIG. 18B: Compound 5 suppressed the palmitoylation of Ras in A2780 and A2780cis (resistant to cisplatin) ovarian cancer cells. Palmitoylation is detected by removing S-palmitate groups from proteins, creating new free thiols (where the palmitic acid group used to be) and capturing the previously S-palmitoylated proteins on a resin, using a commercial kit (Badrilla, Leeds, UK). Ras was detected in the eluate by immunoblot.
This effect may be particularly useful in types of cancer characterized by K-Ras mutation such as, for example, pancreatic, lung and ovarian cancer. FIG. 18A illustrates the inhibition of K-Ras activation by compound 6. […] This property of compound 5 is not shared for example by compound 6 or phosphosulindac.

Drug level in Choroid ([1]; 1 hr): 4.1
Drug level in Conjunctiva ([1]; 1 hr): 71.6
Drug level in Cornea ([1]; 1 hr): 61.8
Drug level in Iris ([1]; 1 hr): 6.9
Drug level in Lens ([1]; 1 hr): 20.2
Drug level in Retina ([1]; 1 hr): 7.5
Drug level in Sclera ([1]; 1 hr): 10.1
Drug level in Vitreous ([1]; 1 hr): 0.9
Drug level in Choroid ([1]; 3 hr): 2.1
Drug level in Conjunctiva ([1]; 3 hr): 52.5
Drug level in Cornea ([1]; 3 hr): 16.2
Drug level in Iris ([1]; 3 hr): 7.6
Drug level in Lens ([1]; 3 hr): 4.6
Drug level in Retina ([1]; 3 hr): 1.8
Drug level in Sclera ([1]; 3 hr): 2.5
Drug level in Vitreous ([1]; 3 hr): 0.5
SMILES: CC1=C(CC(=O)N2CCN(CCNS(C)(=O)=O)CC2)c2cc(F)ccc2/C1=C\c1ccc([S+](C)[O-])cc1 (stereo not drawn) [Compound 1]

SMILES: CCOP(=O)(NCCN1CCN(C(=O)CC2=C(C)/C(=C/c3ccc([S+](C)[O-])cc3)c3ccc(F)cc32)CC1)OCC (stereo not drawn) [Compound 2]
Drug level in Choroid ([1]; 2 hr): 5.3
Drug level in Conjunctiva ([1]; 2 hr): 16.1
Drug level in Cornea ([1]; 2 hr): 106.1
Drug level in Iris ([1]; 2 hr): 9.9
Drug level in Lens ([1]; 2 hr): 0.3
Drug level in Retina ([1]; 2 hr): 4.1
Drug level in Sclera ([1]; 2 hr): 50.7
Drug level in Vitreous ([1]; 2 hr): 1.2
Drug level in Choroid ([1]; 3 hr): 6.4
Drug level in Conjunctiva ([1]; 3 hr): 13.5
Drug level in Cornea ([1]; 3 hr): 46.0
Drug level in Iris ([1]; 3 hr): 9.8
Drug level in Lens ([1]; 3 hr): 4.0
Drug level in Retina ([1]; 3 hr): 1.7
Drug level in Sclera ([1]; 3 hr): 22.4
IC50 (RAW264 murine macrophage): 160 µM
IC50 (HCT116 colon cancer): 460 µM
IC50 (AGS gastric cancer): 306 µM
IC50 (A549 lung cancer): 400 µM
IC50 (SKOV-3 ovarian cancer): 480 µM
avascular area of the retina, percentage of the entire retina surface area (mean±SEM) ([2]; vehicle 16.8±1.1): 5.8±0.8%
neovascular area of the retina, percentage of the entire retina surface area (mean±SEM) ([2]; vehicle 20.7±3.7): 9.9±2.2%
level in aqueous humor ([3]; 1 minute exposure): 1.0 µM
level in choroid ([3]; 1 minute exposure): 425.9 µM
level in ciliary body ([3]; 1 minute exposure): 124.6 µM
level in cornea ([3]; 1 minute exposure): 166.3 µM
level in iris ([3]; 1 minute exposure): 43.1 µM
level in retina ([3]; 1 minute exposure): 12.6 µM
level in aqueous humor ([3]; 10 minutes exposure): 5.3 µM
level in choroid ([3]; 10 minutes exposure): 273.5 µM
level in ciliary body ([3]; 10 minutes exposure): 206.9 µM
level in cornea ([3]; 10 minutes exposure): 512.6 µM
level in iris ([3]; 10 minutes exposure): 10.3 µM
level in retina ([3]; 10 minutes exposure): 46.6 µM

SMILES: N.N.[Cl][Pt][Cl] [cis-platinum, reference compound]
growth of platinum-sensitive xenografts (A2780 xenografts): suppressed the growth
growth of platinum-resistant xenografts (A2780cis xenografts): failed to significantly inhibit tumor growth

SMILES: O=P1(N(CCCl)CCCl)NCCCO1 (stereo not drawn) [cyclophosphamide, reference compound]
inhibition of tumor growth compared to control (HEY-T30 xenografts): 23%

SMILES: CCOP(=O)(OCC)OCCCCOC(=O)CC1=C(C)/C(=C/c2ccc([S+](C)[O-])cc2)c2ccc(F)cc21 (stereo not drawn) [phosphosulindac, reference compound]
suppression of palmitoylation of Ras [4]: not shared
